Experimental data published in ChEMBL document CHEMBL1201862, “PubChem BioAssay data set” (2004).
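Exposure lasted 48 hours, with cells grown in 96-well plates and compounds tested at five concentrations. Here, GI50 denotes the concentration required for 50% inhibition of growth.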 Activity calls are given as the source filed them. Cut-off read from the data, not from the text of the source: active = GI50 up to about 1.1 µM and inactive = higher.

Tests used:
Assay in all cases: NCI anticancer screen, dose series, 48 h
A549 = tested on: A549
HCT-15 = tested on: HCT-15
HOP-62 = tested on: HOP-62
M14 = tested on: M14
NCI-H226 = tested on: NCI-H226
NCI-H460 = tested on: NCI-H460
NCI-H522 = tested on: NCI-H522
NCI/ADR-RES = tested on: NCI/ADR-RES
OVCAR-5 = tested on: OVCAR-5
RPMI-8226 = tested on: RPMI-8226
SN12C = tested on: SN12C
SNB-19 = tested on: SNB-19
T47D = tested on: T47D
IGROV-1 = tested on: IGROV-1
SNB-75 = tested on: SNB-75
UACC-62 = tested on: UACC-62
UO-31 = tested on: UO-31
SF-539 = tested on: SF-539
SK-OV-3 = tested on: SK-OV-3
CAKI-1 = tested on: CAKI-1

Row | SMILES | GI50 (A549) | GI50 (HCT-15) [µM] | GI50 (HOP-62) | GI50 (M14) | GI50 (NCI-H226) | GI50 (NCI-H460) | GI50 (NCI-H522) | GI50 (NCI/ADR-RES) | GI50 (OVCAR-5) | GI50 (RPMI-8226) | GI50 (SN12C) | GI50 (SNB-19) | GI50 (T47D) | GI50 (IGROV-1) | GI50 (SNB-75) | GI50 (UACC-62) | GI50 (UO-31) | GI50 (SF-539) | GI50 (SK-OV-3) | GI50 (CAKI-1)
1 | CCN(CC)CCC(=O)/C=C/c1ccc(Cl)c(Cl)c1 | 2.78 µM (inactive) | 3.66 | > 10 µM (inactive) | 3.52 µM (inactive) | > 10 µM (inactive) | 4.94 µM (inactive) | 1.58 µM (inactive) | 1.99 µM (inactive) | 7.93 µM (inactive) | 0.127 µM (active) | 1.86 µM (inactive) | 5.79 µM (inactive) | 2.33 µM (inactive) |  |  |  |  |  |  | 
2 | CCOC(=O)c1c(N)n(-c2ccccc2)c(=S)n(-c2ccccc2)c1=O | > 100 µM (inactive) | > 100 |  | > 100 µM (inactive) | > 100 µM (inactive) | > 100 µM (inactive) | > 100 µM (inactive) |  | > 100 µM (inactive) | > 100 µM (inactive) | > 100 µM (inactive) | > 100 µM (inactive) | > 100 µM (inactive) | > 100 µM (inactive) | > 100 µM (inactive) | > 100 µM (inactive) | > 100 µM (inactive) |  |  | 
3 | O=C1CCCc2cc3c(cc21)CC1(Cc2ccccc2C1)C3 | 6.17 µM (inactive) | 3.59 | 6.04 µM (inactive) | 4.33 µM (inactive) | 2.03 µM (inactive) |  | 3.94 µM (inactive) | 6 µM (inactive) | 7.66 µM (inactive) | 4.35 µM (inactive) | 4.52 µM (inactive) |  | 5.24 µM (inactive) | 7.43 µM (inactive) | 0.106 µM (active) | 8.91 µM (inactive) | 1.46 µM (inactive) | 3.89 µM (inactive) | 5.11 µM (inactive) | 
4 | CC(C)(C)OC(=O)Cn1ncn(NC(=O)Cc2ccccc2)c1=O | > 10 µM (inactive) | > 10 | > 10 µM (inactive) | > 10 µM (inactive) | > 10 µM (inactive) | > 10 µM (inactive) | > 10 µM (inactive) | > 10 µM (inactive) | > 10 µM (inactive) |  | > 10 µM (inactive) | > 10 µM (inactive) | > 10 µM (inactive) | > 10 µM (inactive) |  | > 10 µM (inactive) | > 10 µM (inactive) | > 10 µM (inactive) | > 10 µM (inactive) | > 10 µM (inactive)
5 | Cc1ccc(S(=O)(=O)N2CCSCCN(S(=O)(=O)c3ccc(C)cc3)CCN(S(=O)(=O)c3ccc(C)cc3)CC2)cc1 | > 100 µM (inactive) |  | 20.7 µM (inactive) | > 100 µM (inactive) | > 100 µM (inactive) | > 100 µM (inactive) |  | > 100 µM (inactive) | > 100 µM (inactive) | > 100 µM (inactive) | > 100 µM (inactive) | 29.2 µM (inactive) | 8.75 µM (inactive) | 56.2 µM (inactive) |  | > 100 µM (inactive) | 92.7 µM (inactive) | 17.6 µM (inactive) | 30.1 µM (inactive) | 
6 | CC(CC(=O)N1C2CC3CCC2(CS1(=O)=O)C3(C)C)[Si](C)(C)C (stereo not drawn) | > 100 µM (inactive) | > 100 | > 100 µM (inactive) | > 100 µM (inactive) | > 100 µM (inactive) | > 100 µM (inactive) | > 100 µM (inactive) | > 100 µM (inactive) |  | > 100 µM (inactive) | > 100 µM (inactive) | > 100 µM (inactive) | > 100 µM (inactive) | > 100 µM (inactive) | > 100 µM (inactive) |  | > 100 µM (inactive) | > 100 µM (inactive) |  | > 100 µM (inactive)
7 | CC(=O)N[C@@H](Cc1ccc(O)cn1)C(=O)NC1CCCCC1 | > 100 µM (inactive) | > 100 | > 100 µM (inactive) | > 100 µM (inactive) | > 100 µM (inactive) |  | 30.3 µM (inactive) | > 100 µM (inactive) | > 100 µM (inactive) | > 100 µM (inactive) | > 100 µM (inactive) | > 100 µM (inactive) | > 100 µM (inactive) | > 100 µM (inactive) |  | > 100 µM (inactive) | > 100 µM (inactive) | > 100 µM (inactive) | > 100 µM (inactive) | > 100 µM (inactive)
8 | c1cc2c(c(NC3=NCCO3)c1)CCC2 | > 100 µM (inactive) | > 100 | > 100 µM (inactive) | > 100 µM (inactive) | > 100 µM (inactive) | > 100 µM (inactive) | > 100 µM (inactive) | > 100 µM (inactive) | > 100 µM (inactive) | > 100 µM (inactive) | > 100 µM (inactive) | > 100 µM (inactive) | > 100 µM (inactive) | > 100 µM (inactive) |  | > 100 µM (inactive) | > 100 µM (inactive) | > 100 µM (inactive) | > 100 µM (inactive) | > 100 µM (inactive)
